This is an account of results in patent publication US6831199B1, “Pyrimidine compounds and derivatives thereof” (G. D. Searle & Co., priority 1995, dated 2004).

Where a name gives a salt, the structure may show the parent alone.

For assay [1], the system named is M21 human melanoma cells. The assay can be described thus: M21 melanoma cell adhesion assay (αvβ3-dependent adhesion to human fibrinogen-coated plates). The assay is classed as cell-based. The note with it: trifluoroacetate salt; read-out: M21 Melanoma Cells IC50. The protocol:
M21 MELANOMA CELL ADHESION ASSASY
This assay involves an αvβ3-dependent adhesion of M21 human melanoma cells to human fibrinogen-coated plastic tissue culture dishes.
Fibrinogen was purified from human plasma. Fibronectin and plasminogen were eliminated from the preparation by passing the sample over gelatin-sepharose 4B and lysine-sepharose 4B resins, respectively. The fibrinogen is diluted to 10 μg/mL in coating buffer ([…] Tris-HCl, 150 mM NaCl, pH 7.4). 100 μL of diluted fibrinogen is added to each well of a 96-well Immulon 2 microtiter plate (Dynatech; Chantilly, Va.) and allowed to coat overnight at 4° C. Plates are blocked with 1% BSA (Miles/Pentex; Kankakee, Ill.) in adhesion buffer (Hank's balanced salt solution without Ca^++ or Mg^++ [HBSS−−], 50 mM Hepes, 1 mg/mL BSA, pH 7.4) for 1 hour at 37° C.
M21 human melanoma cells were provided by Dr. J. Smith, La Jolla Cancer Research Institute. M21 cells are harvested from tissue culture flasks by washing with HBSS−− and adding cell dissociation solution (Sigma) and incubating for 5 minutes at 37° C. Harvested cells are washed 3 times with adhesion assay buffer containing 200 μM Mn^++. Cells are counted and suspended to a density of 2×10^6/mL in adhesion assay buffer containing 200 μM Mn^++. M21 cells are pre-incubated with antagonists of αvβ3 for 30 minutes at room temperature. Following the pre-incubation, the solutions containing a mixture of cells and antagonists are added to each well of the microtiter plate and allowed to bind for 30 minutes at 37° C.
Following adhesion, plates are gently washed 3 times with 200 μL of wash buffer (50 mM Tris-HCl, 150 mM NaCl, pH 7.4) using large bore pipet tips. Plates are briefly blotted dry and 100 μL of cell lysis buffer (50 mM sodium acetate, pH 5.0, 0.5% Triton X-100, 0.3 mg/mL p-nitrophenyl phosphate [Sigma] is added to each well. Plates are incubated for 60 minutes at 37° C. and 50 μL of 1N NaOH is added to stop the reaction. The absorbance of the wells at […] is read using an automatic plate reader.

The target of assay [2] is T1, Human fibrinogen receptor (αIIbβ3) (Homo sapiens, UniProt P05106+P08514).
T1 construct: Human fibrinogen receptor (αIIbβ3) was purified from outdated platelets; from tissue; host or cells: outdated human platelets
The assay can be described thus: Purified IIb/IIIa receptor assay (solid phase receptor assay, competition with biotinylated vitronectin). The note with it: read-out: IIb/IIIa IC50. It counts as binding. In a few lines: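 Purified platelet αIIbβ3 coated overnight at 4 °C in TBS with 1.0 mM Ca/Mg/Mn, pH 7.4, then BSA-blocked. Compounds (top 1.0×10^−4 M) competed with 1 nM biotinylated vitronectin for 2 h at room temperature. Bound label detected by HRP anti-biotin, A450; values normalized to no-competitor controls, four-parameter fit.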

Assay [3] concerns the target T2, Human vitronectin receptor (αvβ3) (Homo sapiens, UniProt P05106+P06756).
T2 construct: Human vitronectin receptor (αvβ3) was purified from human placenta; from tissue; host or cells: human placenta
The assay is described as follows: Vitronectin adhesion assay (solid phase receptor assay, competition with biotinylated vitronectin). The assay is classed as binding. The note with it: read-out: AvB3 IC50. In a few lines:
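Purified human αvβ3 coated overnight at 4 °C in TBS with 1.0 mM Ca++, Mg++, Mn++, pH 7.4; compounds (top final 1.0×10^−4 M) competed with 1 nM biotinylated vitronectin for 2 h at room temperature. Bound ligand detected by HRP anti-biotin/OPD at A450; values normalized to no-competitor controls, four-parameter curve fit.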

Assay [4] deals with platelet rich plasma. The assay can be described thus: Human platelet rich plasma assay (ADP induced platelet aggregation). It counts as cell-based. Conditions: ADP induced platelet aggregation in human platelet rich plasma; read-out: Human PRP. In short, it runs like this:
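Citrated platelet-rich plasma from aspirin-free healthy human donors was stirred at 37 °C and preincubated with compound for 1 min. Aggregation was then triggered with ADP (added as a 200 uM solution) and recorded photometrically for 3 min. Dose–response curves were built from % inhibition of the maximal saline-control response.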

Consider `NC(=O)Nc1cccc(C(=O)NCC(=O)NC(CC(=O)O)c2cccnc2)c1` (stereo not drawn) [Example 110, β-[[2-[[[3-(aminocarbonylamino)phenyl]carbonyl]amino]acetyl]amino]pyridine-3-propanoic acid, trifluoroacetate salt], for which the IC50 was 0.177 µM in assay [1], 1.86 µM in assay [2], 0.0045 µM in assay [3] and above 200 µM in assay [4].
